Measurements published in paper PMC3974779, “Pterostilbene-Isothiocyanate Conjugate Suppresses Growth of Prostate Cancer Cells Irrespective of Androgen Receptor Status” (PLoS ONE, 2014).

Legend:
CHO cells = experiment: MTT cytotoxicity assay; assay type: cell-based; conditions: Cricetulus griseus, CHO noncancer cells, 24 h exposure, read-out: IC50 value (50% growth inhibition)
Method: (§1) MTT assay was carried out as described previously. In brief, 5×10^3 cells in 200 μl of medium were seeded in 96-well plates (Griener, Germany). After 24 h, the cells were treated with various concentrations (0.1, 1, 10, 100 and 1000 μM) of RESV, PTER and conjugate. The control cells were treated with 0.1% DMSO (vehicle control). The cultured cells were assayed after 24 h by adding 20 μl of 5 mg/ml MTT followed by incubating at 37°C for 4 h. The MTT containing media was then aspirated and 200 μl DMSO (Himedia, Mumbai, India) was added to dissolve the formazone crystals. The optical density (OD) was measured at 570 nm using ELISA plate reader (Fluostar optima, BMG Labtech, Germany). The percentage inhibition was calculated as: [drawing 1]
(§2) The dose response curve and IC50 values were obtained by nonlinear regression analysis [non-linear regression (sigmoidal dose response with variable slope)] using Graph Pad Prism, version 5.02 software (Graph Pad Software Inc., CA, USA).

COS-1 cells = experiment: MTT cytotoxicity assay; assay type: cell-based; conditions: Chlorocebus aethiops, COS-1 noncancer cells, 24 h exposure, read-out: IC50 value (50% growth inhibition)
Method: as §1, §2

LNCaP cells = experiment: MTT cytotoxicity assay; assay type: cell-based; conditions: Homo sapiens, 24 h, 24 h exposure, mean ± SEM, read-out: IC50 value (50% growth inhibition)
Method: as §1, §2

PC-3 cells = experiment: MTT cytotoxicity assay; assay type: cell-based; conditions: Homo sapiens; PC-3, MTT, 24 h exposure, mean ± SEM; read-out: IC50 value (50% growth inhibition)
Method: as §1, §2

[1] = test system: caspase-3 activity in LNCaP cells; experiment: Caspase colorimetric protease assay; assay type: cell-based, human; conditions: 24 h
Method: (§3) Caspase activity was determined using ApoTarget caspase colorimetric protease assay sampler kit (KHZ1001; Invitrogen) according to the manufacturer’s instructions. Briefly, both the PCa cells were treated with increasing doses of conjugate and RESV for 24 h. The cells were then collected, washed in PBS, and lysed in 50 μl lysis buffer on ice for 10 min. After centrifugation, the supernatant containing 150 μg proteins were incubated with 200 μM of caspase-3 (Ac-DEVD-pNA), caspase-8 (Ac-IETD-pNA) and caspase-9 (Ac-LEHD-pNA) substrates respectively in reaction buffer at 37°C for 1 h in 96 well flat bottom plate. Levels of released pNA were then measured at 405 nm wavelength with ELISA plate reader (Fluostar optima, BMG Labtech, Germany). The fold-increase in caspase-3, -8, and -9 activities were determined by direct comparison to the level of un-induced control. For the caspase inhibitor assay, cells were pretreated with a synthetic pan-caspase inhibitor (Z-VAD-FMK), caspase-8 inhibitor (Z-IETD-FMK) and caspase-9 inhibitor (Z-LEHD-FMK) for 1 h before the addition of conjugate and the cell death were analyzed by MTT assay as discussed earlier.

[2] = test system: caspase-3 activity in PC-3 cells; experiment: Caspase colorimetric protease assay; assay type: cell-based, human; conditions: PC-3, 10, 20 and 40 μM, 24 h
Method: as §3

[3] = test system: caspase-8 activity in LNCaP cells; experiment: Caspase colorimetric protease assay; assay type: cell-based, human; conditions: 24 h
Method: as §3

[4] = test system: caspase-8 activity in PC-3 cells; experiment: Caspase colorimetric protease assay; assay type: cell-based, human; conditions: PC-3, 24 h, high dose
Method: as §3

[5] = test system: caspase-9 activity in LNCaP cells; experiment: Caspase colorimetric protease assay; assay type: cell-based, human; conditions: 24 h
Method: as §3

[6] = test system: caspase-9 activity in PC-3 cells; experiment: Caspase colorimetric protease assay; assay type: cell-based, human; conditions: PC-3, 10, 20 and 40 μM, 24 h
Method: as §3

[7] = test system: caspase-3 expression in LNCaP cells; experiment: Immunoblot analysis of apoptotic markers; assay type: cell-based, human; conditions: highest dose (40 μM), immunoblot densitometry
Method: (§4) The whole-cell lysates were prepared as described previously in immunoprecipitation (IP) buffer containing 50 mM Tris-HCl (pH 8.0), 150 mM NaCl, 5 mM EDTA, and 1% Triton X-100. Protein aliquots of 500 μg were then incubated overnight at 4°C using 2 μg of antibody directed against AR. The Protein A-Cl Agarose beads were then added and further incubated for 6 h at 4°C. The immunoprecipitates were washed four times with the IP buffer and the immunocomplexes were recovered by boiling in SDS sample buffer. Finally the western blot was carried out using anti-AR, anti-SRC-1 and anti-GRIP-1 antibodies (Santa Cruz, CA, USA). For western blot analysis, the cell lysates were prepared after harvesting them in lysis buffer. About 40 μg of total protein was electrophoresed by 12% SDS-PAGE, and the western blotting was carried out using standard protocol. In brief, the analyzed proteins were transferred to nylon membranes. The blots were then blocked with TBST buffer (20 mM Tris-Cl, pH 7.5, 150 mM sodium chloride, 0.05% Tween-20) containing 5% skim milk powder. They were then washed with TBST buffer and incubated overnight at 4°C with the same buffer containing appropriate amounts of primary antibodies: caspase-3, Bax, Bcl-2, Akt, p-Akt, ERK, p-ERK, AR, SRC-1, GRIP-1 (1∶500) and β-actin (1∶1000). The blots were then washed and incubated with anti-rabbit secondary antibody (1∶20,000) conjugated with horseradish peroxidase (HRP). Color development was performed in the dark by using an ECL kit (Amersham, GE Healthcare, Buckinghamshire, UK). The developed blots were subjected to densitometric analysis by ImageJ 1.43 software (NIH, USA) using β-actin as internal control.

[8] = test system: caspase-3 expression in PC-3 cells; experiment: Immunoblot analysis of apoptotic markers; assay type: cell-based, human; conditions: PC-3, highest dose (40 μM), immunoblot densitometry
Method: as §4

[9] = test system: p53 protein in LNCaP cells; experiment: Immunoblot of p53 with p53 inhibitor; assay type: cell-based, human; conditions: 20 μM PFT-α, 20 and 40 μM conjugate, 24 h
Method: The whole-cell lysates were prepared as described previously in immunoprecipitation (IP) buffer containing 50 mM Tris-HCl (pH 8.0), 150 mM NaCl, 5 mM EDTA, and 1% Triton X-100. Protein aliquots of 500 μg were then incubated overnight at 4°C using 2 μg of antibody directed against AR. The Protein A-Cl Agarose beads were then added and further incubated for 6 h at 4°C. The immunoprecipitates were washed four times with the IP buffer and the immunocomplexes were recovered by boiling in SDS sample buffer. Finally the western blot was carried out using anti-AR, anti-SRC-1 and anti-GRIP-1 antibodies (Santa Cruz, CA, USA). For western blot analysis, the cell lysates were prepared after harvesting them in lysis buffer. About 40 μg of total protein was electrophoresed by 12% SDS-PAGE, and the western blotting was carried out using standard protocol. In brief, the analyzed proteins were transferred to nylon membranes. […]
Since there was no significant difference in the number of apoptotic cells between conjugate treated LNCaP (wild type p53) and PC-3 (p53 null) cells (p<0.05), it was intriguing to check if p53 has any role in conjugate induced apoptosis of PCa cells. […] Next we determined the effect of p53-inhibition on conjugate induced cell death by using MTT assay.

In the case of `COc1cc(/C=C/c2ccc(O)c(/C=N/NC(N)=S)c2)cc(OC)c1` [conjugate, Pterostilbene-isothiocyanate conjugate], the IC50 (CHO cells) is reported as > 100 µM, the IC50 (COS-1 cells) is reported as > 100 µM and the IC50 (LNCaP cells) is reported as 40 ± 1.12 µM. The IC50 (PC-3 cells) was 45 ± 1.5 µM, the caspase-3 activity [1] was “significant increase” and the caspase-3 enzyme activity [2] was “dose-dependent augmentation”. For the same compound, the caspase-8 activity [3] was “significant increase”, the caspase-8 activity [4] was “no such induction was observed” and the caspase-9 activity [5] was “significant increase”. For the same compound, the caspase-9 enzyme activity [6] was “dose-dependent augmentation”, the “enhancement of caspase-3 expression” value [7] was “about 8.5 folds” and the “enhancement of caspase-3 expression” value [8] was ~6 folds. The “expression of p53 protein” value [9] was “dose dependent increase”.
